Data from US20250064760A1, “INTRACANALICULAR INSERT COMPRISING A NON-STEROIDAL ANTI-INFLAMMATORY AGENT” (OCULAR THERAPEUTIX, INC., priority 2022, published 2025).
Converted amounts (≈) assume the structure as drawn. “And” between values parts separate entries of the source, which are not always exact repeats. Identical values can stand only once.

What was measured:
[1] = aqueous suspension at 0.1%; cited from earlier work
[2] = cited from earlier work
[3] = cited from earlier work; remark: listed apart in the source
Nepafenac solubility = format: physicochemical; settings: aqueous buffer; PBS, pH 7.2 at 37° C.
Procedure: Nepafenac is a monocarboxylic acid amide that is amfenac in which the carboxylic acid group has been converted into the corresponding carboxamide. Nepafenac is yellow crystalline or powdery substance practically insoluble in water (14 mcg/mL). Nepafenac is soluble in organic solvents such as ethanol, DMSO, and dimethyl formamide (DMF). The solubility of nepafenac in ethanol is approximately 0.5 mg/mL and approximately 30 mg/ml in DMSO and DMF. An aqueous suspension at 0.1% gives an average pH of 6.75. The coefficient partition n-octanol/water is 128. […] Nepafenac is an achiral substance and there are no possible variations in the stereochemical configuration.
Nepafenac solubility testing in PBS, pH 7.2 at 37° C. is approximately 102 mcg/mL.

[4] = target: T1, cyclooxygenase-2 (COX-2) enzyme (Homo sapiens, UniProt P35354); settings: Walters et al., 2007; cited from earlier work
T1 sequence (P35354 18-604): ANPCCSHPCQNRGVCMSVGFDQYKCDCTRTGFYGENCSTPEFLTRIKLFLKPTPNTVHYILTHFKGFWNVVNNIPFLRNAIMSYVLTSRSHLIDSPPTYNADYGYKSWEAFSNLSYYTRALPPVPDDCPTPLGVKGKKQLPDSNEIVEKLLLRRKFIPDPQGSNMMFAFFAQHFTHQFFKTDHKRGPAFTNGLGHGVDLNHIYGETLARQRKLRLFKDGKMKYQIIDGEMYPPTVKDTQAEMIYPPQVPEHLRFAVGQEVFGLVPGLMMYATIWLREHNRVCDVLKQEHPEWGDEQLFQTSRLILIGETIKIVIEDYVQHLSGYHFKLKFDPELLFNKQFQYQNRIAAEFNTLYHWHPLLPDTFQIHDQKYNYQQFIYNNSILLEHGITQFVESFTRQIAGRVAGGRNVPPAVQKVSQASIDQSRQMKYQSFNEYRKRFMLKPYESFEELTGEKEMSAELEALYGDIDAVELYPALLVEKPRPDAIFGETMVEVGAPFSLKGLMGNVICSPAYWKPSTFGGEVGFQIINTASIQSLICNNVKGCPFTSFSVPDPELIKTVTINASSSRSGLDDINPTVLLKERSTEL

Structure (SMILES): NC(=O)Cc1cccc(C(=O)c2ccccc2)c1N [Nepafenac, 2-(2-amino-3-benzoylphenyl)acetamide]
- average pH of aqueous suspension [1]: 6.75
- coefficient partition n-octanol/water [2]: 128
- solubility in DMF ([3]; DMF): approximately 30 mg/ml
- solubility in DMSO ([3]; DMSO): approximately 30 mg/ml
- solubility in ethanol ([3]; ethanol): approximately 0.5 mg/mL
- solubility in water ([3]; water): 14 µg/mL (≈ 55.1 µM)
- solubility (Nepafenac solubility): ~102 µg/mL (≈ 401 µM)

Structure (SMILES): Nc1c(CC(=O)O)cccc1C(=O)c1ccccc1 [amfenac]
- IC50 [4]: ~1.76 nM and 1.76 nM
